Measurements as given in publication PMC11694061 (Cancer Research, 2024).

Legend:
MIA PaCa-2 cells = test: Proliferation, MIA PaCa-2 (2D); assay type: cell-based; conditions: Homo sapiens, MIA PaCa-2, 72 hours
Procedure: (§1) Cells were inoculated onto 96-well plates and treated with compounds in serial dilutions for 3 or 5 days. […] The cell viability of primary patient samples was tested using the CellTiter-Glo Luminescent Assay kit (G7573, Promega) according to the manufacturer’s instructions. […] The optical density (OD) values were obtained using a SPARK microplate reader (Tecan). IC50 was calculated using GraphPad Prism 8.0.2 (nonlinear regression analysis with four parameters). Drug synergy was evaluated with combination index (CI) values using CalcuSyn Demo Version 2.0 software. CI > 1 indicates antagonism, CI < 1 indicates synergy, and CI = 1 indicates additivity.

MIA PaCa-2/R cells = test: Proliferation, MIA PaCa-2/R (2D); assay type: cell-based; conditions: Homo sapiens, MIA PaCa-2/R (AMG510-resistant), 72 hours
Procedure: as §1

K562 xenografts = test: K562 xenograft; assay type: in vivo; conditions: imatinib (100 mg/kg) monotherapy, orally daily
Procedure: (§2) Animal experiments were carried out following the guidelines of the Institutional Animal Care and Use Committee of Shanghai Institute of Materia Medica, Chinese Academy of Sciences, and Lingang Laboratory. […] All mice were raised till the tumor volumes reached approximately 100 mm^3 and were randomly assigned to either the vehicle or treated groups (n = 5/group). […] Body weights and tumor sizes of mice were recorded every 3 days. Tumor volumes were calculated as follows: ½ × length × width^2. On the final day of the experiment, the mice were euthanized and tumor samples were prepared for Western blot analysis.

GP2d cells (KRAS^G12D) = test: 3D growth inhibition, GP2d; assay type: cell-based; conditions: Homo sapiens, 120 h, read-out: IC50 (3D culture), GP2d
Procedure: (§3) Cells were inoculated onto 96-well plates and treated with compounds in serial dilutions for 3 or 5 days. Cell viability was assessed using sulforhodamine B (230162, Sigma-Aldrich) assay and methyl thiazolyl tetrazolium (M5655, Sigma-Aldrich) assay for adherent and suspended cells, respectively, in accordance with previously described methods ([48]). The cell viability of primary patient samples was tested using the CellTiter-Glo Luminescent Assay kit (G7573, Promega) according to the manufacturer’s instructions. Three-dimensional cultivation was conducted in 96-well ultralow attachment plates (7007, Corning). The optical density (OD) values were obtained using a SPARK microplate reader (Tecan). IC50 was calculated using GraphPad Prism 8.0.2 (nonlinear regression analysis with four parameters). Drug synergy was evaluated with combination index (CI) values using CalcuSyn Demo Version 2.0 software. CI > 1 indicates antagonism, CI < 1 indicates synergy, and CI = 1 indicates additivity.

SW620 cells (G12V) = test: 3D growth inhibition, SW620; assay type: cell-based; conditions: Homo sapiens, SW-620, 120 h, read-out: IC50 (3D culture), SW620
Procedure: as §3

[1] = tested on: HPAF-II cells (KRAS^G12D); test: 3D growth inhibition, HPAF-II; assay type: cell-based; conditions: Homo sapiens, 120 h, read-out: IC50 (3D culture), HPAF-II
Procedure: as §3

293T cells (KRAS-WT) = test: 3D growth inhibition, 293T; assay type: cell-based; conditions: Homo sapiens, HEK-293T, 120 h, read-out: IC50 (3D culture), 293T
Procedure: as §3

BxPC-3 cells (KRAS-WT) = test: 3D growth inhibition, BxPC-3; assay type: cell-based; conditions: Homo sapiens, BXPC-3, 120 h, read-out: IC50 (3D culture), BxPC-3
Procedure: as §3

[2] = tested on: NCI-H358 cells (KRAS^G12C); test: 3D growth inhibition, NCI-H358; assay type: cell-based; conditions: Homo sapiens, NCI-H358, 120 h, read-out: IC50 (3D culture), NCI-H358
Procedure: as §3

K562 cells = test: Proliferation, K562; assay type: cell-based, human; conditions: Homo sapiens, K562, read-out: IC50 (cell proliferation inhibition in K562 cells)
Procedure: as §1

[3] = tested on: MIA PaCa-2 xenografts (KRAS^G12C); test: MIA PaCa-2 xenograft; assay type: in vivo, mouse; conditions: BI-3406 50 mg/kg twice daily, end of 24-day period
Procedure: as §2

Compound `C=CC(=O)N1CCN(c2nc(=O)n(-c3c(C)ccnc3C(C)C)c3nc(-c4c(O)cccc4F)c(F)cc23)[C@@H](C)C1` [AMG510, sotorasib] has an IC50 (MIA PaCa-2 cells) of 25 nM and an IC50 (MIA PaCa-2/R cells) of 590000 nM.

`Cc1ccc(NC(=O)c2ccc(CN3CCN(C)CC3)cc2)cc1Nc1nccc(-c2cccnc2)n1` [imatinib] showed a TGI (K562 xenografts) of 50.9%.

Work on `COc1cc2nc(C)nc(N[C@H](C)c3cc(N)cc(C(F)(F)F)c3)c2cc1O[C@H]1CCOC1` [BI-3406] yielded an IC50 (GP2d cells (KRAS^G12D)) of 4.1 nM, an IC50 (SW620 cells (G12V)) of 18 nM and an IC50 [1] of 61.9 nM. For the same compound, the IC50 (293T cells (KRAS-WT)) was greater than 10000 nM, the IC50 (BxPC-3 cells (KRAS-WT)) was 692 nM and the IC50 [2] was 11 nM. It also gave an IC50 (K562 cells) of 199 ± 32 nM and a tumor growth inhibition [3] of 62.0%.
